Laboratory results reported in patent publication US11541065B2, “Compositions and methods for treating brain injury” (UNM RAINFOREST INNOVATIONS, priority 2018, dated 2023).

How the values were obtained:
[Ca^2+]i = Intracellular Ca^2+ by Fura2 imaging, rat neuronal cultures; type: cell-based; conditions: for effect on homocysteine-induced increase in Fura2 fluorescence ratio and [Ca^2+]i: rat neurons, somata and processes, L-homocysteine 50 μM 60 minutes, with EGTA 2 mM, DL-AP5 200 μM, NVP-AAM077 30 nM or Ro 25-6981 1 μM
Experimental: Embryos obtained from pregnant Sprague Dawley rats (16-17-day gestation) or wild type (WT) and GluN2A KO mice (15-16-day gestation) were used to establish primary cortical neuronal cultures as previously described (Poddar and Paul, 2009, J Neurochem 110:1095-1106; Poddar and Paul, 2013, J Neurochem 124:558-570; Poddar et al., 2017, J Neurochem 142:560-573). Neurons were grown on either (a) 35-mm culture dishes (MatTek Corp., Ashland, Mass.) coated overnight with poly-D-lysine (50 μg/ml) and laminin (10 μg/ml) for Ca^2+ imaging studies, (b) poly-D-lysine-coated 60 mm dishes (Corning BIOCOAT, Corning Inc., Corning, N.Y.) for biochemical studies, or (c) poly-D-lysine-coated 4-well culture slides (Corning BIOCOAT, Corning Inc., Corning, N.Y.) for cell death assay. Neurons were maintained in culture for 12-13 days before experiment. The cells were treated with freshly prepared L-homocysteine (50 μM) in Hank's balanced salt solution containing 50 μM of glycine (Lipton et al., 1997, Proceedings of the National Academy of Sciences of the United States of America 94:5923-5928; Poddar and Paul, 2009, J Neurochem 110:1095-1106; Poddar and Paul, 2013, J Neurochem 124:558-570; Poddar et al., 2017, J Neurochem 142:560-573) for the specified time periods. In a parallel series of experiments, cells were treated with glutamate (50 μM) for the specified time periods. Cells were then processed for live cell imaging, immunoblotting or cell death assay. In some experiments EGTA, DL-AP5, NVP-AAM077, Ro 25-6981 or PD98059 was added 15 minutes prior to L-homocysteine or glutamate treatment.
[Ca^2+]i in neurons was determined using the fluorescent indicator, Fura2-AM. Briefly, neurons were loaded with Fura2 (10 μM) in phenol red free Hank's balanced salt solution for 30 minutes at 37° C. followed by post-incubation for 20 minutes (Paul, S. and Connor, J. A., 2010, J Neurochem 114:1107-1118). Time lapse live cell imaging was performed following stimulation using a Nikon Ti Eclipse inverted microscope equipped with Tokai Hit stage top incubator maintained at 37° C. and infused with 95:5% air:CO2 mixture. Fields of 5-8 cells were imaged using a 40× oil immersion objective (Nikon). Fluorescence excitations (340 and 380 nm) were provided with Sutter LB-LS/30 Lambda xenon arc lamp and fluorescence emissions (510 nm) were captured using a CCD camera (Teledyne Photometries, Tucson, Ariz.). NIS Elements AR software was used for data acquisition and analysis. Ratiometric data (340/380 nm) from regions of interest were corrected for background and converted into estimates of [Ca^2+]i. as described previously (Paul, S. and Connor, J. A., 2010, J Neurochem 114:1107-1118) using the equation developed earlier (Grynkiewicz et al., 1985, J Biol Chem 260:3440-3450). Maximum and minimum fluorescence ratios were determined from Fura2 loaded cells treated with ionomycin (5 μM) in calcium containing medium (2 mM) or in calcium free media with EGTA (0.5 mM).

COX2 = COX2 protein level in rat neuronal cultures (immunoblot); type: cell-based; conditions: for effect on homocysteine-induced increase in COX2 protein level: rat neurons, L-homocysteine 50 μM four hours, with MK801 10 μM, NVP-AAM077 30 nM, Ro 25-6981 1 μM, PD98059 15 μM, SB203580 5 μM or Bengamide B 500 nM
Experimental: Equal protein from total cell lysates obtained from rat and mice neuronal cultures were resolved in 7.5% SDS-PAGE, and subjected to immunoblotting procedure as described earlier (Poddar and Paul, 2009, J Neurochem 110:1095-1106). Blots were analyzed with antibodies as described in each experiment. All primary antibodies (anti-COX2, anti-B-tubulin) and secondary-horse radish peroxidase conjugated antibody concentrations were used according to recommendations provided by the manufacturer. Signals from immune complexes in the blots were developed using West Pico supersignal chemiluminescence reagents and then captured on X-ray films. Densitometric analysis of the images was performed using the Image J software.
Rat and mice neuronal cultures were washed with PBS (pH 7.4), containing sodium pyrophosphate and sodium vanadate as phosphatase inhibitors, and harvested in SDS sample buffer (Laemmli, 1970, Nature 227:680-685). Equal protein from total cell lysates, estimated using BCA kit, was resolved by SDS-PAGE (7.5%) followed by western blotting on PVDF membranes. Immunoblot analysis was performed by first blocking with 5% non-fat dry milk for 1 h at room temperature followed by incubation with either COX2 immunoblot analysis (Poddar and Paul, 2009, J Neurochem 110:1095-1106) as described in each experiment. All primary antibodies and horseradish peroxidase conjugated secondary antibodies were used according to manufacturer's recommendations. Signals from immune complexes in the blots were developed using West Pico supersignal chemiluminescence reagents and then captured on X-ray films. Densitometric analysis of the images was performed using the NIH Image J software.

With `N[C@@H](CCS)C(=O)O` [L-homocysteine] the “maximum increase in [Ca^2+]i vs control cells” value ([Ca^2+]i; rat neurons (soma), L-homocysteine 50 μM, by 60 minutes) was “approximately 7.2 folds” and the COX2 protein levels (COX2; cortical neurons, L-homocysteine 50 μM, time course, alone) was “progressive increase in COX2 protein levels”.
`C[C@@H](CN1CCC(Cc2ccccc2)CC1)[C@@H](O)c1ccc(O)cc1` [Ro 25-6981] was tested, and the “effect on homocysteine-induced increase in Fura2 fluorescence ratio and [Ca^2+]i” value ([Ca^2+]i) was “fails to attenuate homocysteine-induced [Ca^2+]i increase” and the “effect on homocysteine-induced increase in COX2 protein level” value (COX2) was “fails to ameliorate homocysteine-induced increase in COX2 protein level”.
In the case of `C[C@H](NC(c1cccc2[nH]c(=O)c(=O)[nH]c12)P(=O)(O)O)c1ccc(Br)cc1` (stereo partly drawn) [NVP-AAM077, ({[(1S)-1-(4-bromophenyl)ethyl]amino}-(2,3-dioxo-1,4-dihydroquinoxalin-5-yl)methyl)phosphonic acid], the “effect on homocysteine-induced increase in Fura2 fluorescence ratio and [Ca^2+]i” value ([Ca^2+]i) is reported as “attenuates homocysteine-induced increase in Fura2 fluorescence ratio and [Ca^2+]i” and the “effect on homocysteine-induced increase in COX2 protein level” value (COX2) is reported as “blocks homocysteine-induced increase in COX2 protein expression”.
